The text below walks through data of patent US12065442B2, “Tropomyosin receptor kinase (TRK) degradation compounds and methods of use” (Cullgen (Shanghai), Inc., priority 2018, dated 2024).

The test system of the assay is KM12 cells. Description: Cell viability assay (CellTiter-Glo) in KM12 cells. It counts as cell-based. The following applies: Homo sapiens, 72 h; Table 3; KM12 cell viability, CellTiter-Glo, 3 days; read-out: IC50.
For the compound `O=C1CCC(N2C(=O)c3ccc(NCCC(=O)N4CCN(c5ccc(C(=O)Nc6n[nH]c7ccc(Cc8cc(F)cc(F)c8)cc67)c(NC6CCOCC6)c5)CC4)cc3C2=O)C(=O)N1` (stereo not drawn) [TR-145, N-(5-(3,5-Difluorobenzyl)-1H-indazol-3-yl)-4-(4-(3-((2-(2,6-dioxopiperidin-3-yl)-1,3-dioxoisoindolin-5-yl)amino)propanoyl)piperazin-1-yl)-2-((tetrahydro-2H-pyran-4-yl)amino)benzamide], the IC50 was 3.1 nM.
On to `O=C1CCC(N2C(=O)c3ccc(NCCOCCOCCOCCC(=O)N4CCN(c5ccc(C(=O)Nc6n[nH]c7ccc(Cc8cc(F)cc(F)c8)cc67)c(NC6CCOCC6)c5)CC4)cc3C2=O)C(=O)N1` (stereo not drawn) [TR-146, N-(5-(3,5-Difluorobenzyl)-1H-indazol-3-yl)-4-(4-(3-(2-(2-(2-((2-(2,6-dioxopiperidin-3-yl)-1,3-dioxoisoindolin-5-yl)amino)ethoxy)ethoxy)ethoxy)propanoyl)piperazin-1-yl)-2-((tetrahydro-2H-pyran-4-yl)amino)benzamide], for which the IC50 stood at 4.2 nM.
In the case of `O=C(CN1CCN(c2ccc(C(=O)Nc3n[nH]c4ccc(Cc5cc(F)cc(F)c5)cc34)c(NC3CCOCC3)c2)CC1)NCCCCCCNc1cccc2c1C(=O)N(C1CCC(=O)NC1=O)C2=O` (stereo not drawn) [TR-147, N-(5-(3,5-Difluorobenzyl)-1H-indazol-3-yl)-4-(4-(2-((6-((2-(2,6-dioxopiperidin-3-yl)-1,3-dioxoisoindolin-4-yl)amino)hexyl)amino)-2-oxoethyl)piperazin-1-yl)-2-((tetrahydro-2H-pyran-4-yl)amino)benzamide], the 50% inhibitory concentration (IC50) was 6.4 nM.
`O=C(CN1CCN(c2ccc(C(=O)Nc3n[nH]c4ccc(Cc5cc(F)cc(F)c5)cc34)c(NC3CCOCC3)c2)CC1)NCCCCCCCCNc1cccc2c1C(=O)N(C1CCC(=O)NC1=O)C2=O` (stereo not drawn) [TR-148, N-(5-(3,5-Difluorobenzyl)-1H-indazol-3-yl)-4-(4-(2-((8-((2-(2,6-dioxopiperidin-3-yl)-1,3-dioxoisoindolin-4-yl)amino)octyl)amino)-2-oxoethyl)piperazin-1-yl)-2-((tetrahydro-2H-pyran-4-yl)amino)benzamide]: the IC50 amounted to 23.2 nM.
As for `O=C(CN1CCN(c2ccc(C(=O)Nc3n[nH]c4ccc(Cc5cc(F)cc(F)c5)cc34)c(NC3CCOCC3)c2)CC1)NCCCCCNc1cccc2c1C(=O)N(C1CCC(=O)NC1=O)C2=O` (stereo not drawn) [TR-149, N-(5-(3,5-Difluorobenzyl)-1H-indazol-3-yl)-4-(4-(2-((5-((2-(2,6-dioxopiperidin-3-yl)-1,3-dioxoisoindolin-4-yl)amino)pentyl)amino)-2-oxoethyl)piperazin-1-yl)-2-((tetrahydro-2H-pyran-4-yl)amino)benzamide], the IC50 was 4.6 nM.
As for `O=C(CN1CCN(c2ccc(C(=O)Nc3n[nH]c4ccc(Cc5cc(F)cc(F)c5)cc34)c(NC3CCOCC3)c2)CC1)NCCOCCOCCOCCOCCNc1cccc2c1C(=O)N(C1CCC(=O)NC1=O)C2=O` (stereo not drawn) [TR-150, N-(5-(3,5-Difluorobenzyl)-1H-indazol-3-yl)-4-(4-(17-((2-(2,6-dioxopiperidin-3-yl)-1,3-dioxoisoindolin-4-yl)amino)-2-oxo-6,9,12,15-tetraoxa-3-azaheptadecyl)piperazin-1-yl)-2-((tetrahydro-2H-pyran-4-yl)amino)benzamide], the figure is 16.6 nM.
`O=C(CN1CCN(c2ccc(C(=O)Nc3n[nH]c4ccc(Cc5cc(F)cc(F)c5)cc34)c(NC3CCOCC3)c2)CC1)NCCOCCNc1cccc2c1C(=O)N(C1CCC(=O)NC1=O)C2=O` (stereo not drawn) [TR-151, N-(5-(3,5-Difluorobenzyl)-1H-indazol-3-yl)-4-(4-(2-((2-(2-((2-(2,6-dioxopiperidin-3-yl)-1,3-dioxoisoindolin-4-yl)amino)ethoxy)ethyl)amino)-2-oxoethyl)piperazin-1-yl)-2-((tetrahydro-2H-pyran-4-yl)amino)benzamide]: the IC50 is 3.1 nM.
`O=C(CN1CCN(c2ccc(C(=O)Nc3n[nH]c4ccc(Cc5cc(F)cc(F)c5)cc34)c(NC3CCOCC3)c2)CC1)NCCCNc1cccc2c1C(=O)N(C1CCC(=O)NC1=O)C2=O` (stereo not drawn) [TR-152, N-(5-(3,5-Difluorobenzyl)-1H-indazol-3-yl)-4-(4-(2-((3-((2-(2,6-dioxopiperidin-3-yl)-1,3-dioxoisoindolin-4-yl)amino)propyl)amino)-2-oxoethyl)piperazin-1-yl)-2-((tetrahydro-2H-pyran-4-yl)amino)benzamide]: the IC50 turned out to be 3.1 nM.
Regarding `O=C(CN1CCN(c2ccc(C(=O)Nc3n[nH]c4ccc(Cc5cc(F)cc(F)c5)cc34)c(NC3CCOCC3)c2)CC1)NCCOCCOCCNc1cccc2c1C(=O)N(C1CCC(=O)NC1=O)C2=O` (stereo not drawn) [TR-153, N-(5-(3,5-Difluorobenzyl)-1H-indazol-3-yl)-4-(4-(2-((2-(2-(2-((2-(2,6-dioxopiperidin-3-yl)-1,3-dioxoisoindolin-4-yl)amino)ethoxy)ethoxy)ethyl)amino)-2-oxoethyl)piperazin-1-yl)-2-((tetrahydro-2H-pyran-4-yl)amino)benzamide], the IC50 turned out to be 6.3 nM.
`O=C(CN1CCN(c2ccc(C(=O)Nc3n[nH]c4ccc(Cc5cc(F)cc(F)c5)cc34)c(NC3CCOCC3)c2)CC1)NCCCCCCCNc1cccc2c1C(=O)N(C1CCC(=O)NC1=O)C2=O` (stereo not drawn) [TR-154, N-(5-(3,5-Difluorobenzyl)-1H-indazol-3-yl)-4-(4-(2-((7-((2-(2,6-dioxopiperidin-3-yl)-1,3-dioxoisoindolin-4-yl)amino)heptyl)amino)-2-oxoethyl)piperazin-1-yl)-2-((tetrahydro-2H-pyran-4-yl)amino)benzamide]: the IC50 worked out at 20.8 nM.
On to `O=C(CN1CCN(c2ccc(C(=O)Nc3n[nH]c4ccc(Cc5cc(F)cc(F)c5)cc34)c(NC3CCOCC3)c2)CC1)NCCCCNc1cccc2c1C(=O)N(C1CCC(=O)NC1=O)C2=O` (stereo not drawn) [TR-155, N-(5-(3,5-Difluorobenzyl)-1H-indazol-3-yl)-4-(4-(2-((4-((2-(2,6-dioxopiperidin-3-yl)-1,3-dioxoisoindolin-4-yl)amino)butyl)amino)-2-oxoethyl)piperazin-1-yl)-2-((tetrahydro-2H-pyran-4-yl)amino)benzamide], for which the IC50 stood at 2.9 nM.
The figure for `O=C(CN1CCN(c2ccc(C(=O)Nc3n[nH]c4ccc(Cc5cc(F)cc(F)c5)cc34)c(NC3CCOCC3)c2)CC1)NCCCCNc1ccc2c(c1)C(=O)N(C1CCC(=O)NC1=O)C2=O` (stereo not drawn) [TR-156, N-(5-(3,5-Difluorobenzyl)-1H-indazol-3-yl)-4-(4-(2-((4-((2-(2,6-dioxopiperidin-3-yl)-1,3-dioxoisoindolin-5-yl)amino)butyl)amino)-2-oxoethyl)piperazin-1-yl)-2-((tetrahydro-2H-pyran-4-yl)amino)benzamide] is 3.3 nM.
As for `O=C(CN1CCN(c2ccc(C(=O)Nc3n[nH]c4ccc(Cc5cc(F)cc(F)c5)cc34)c(NC3CCOCC3)c2)CC1)NCCCCCCCNc1ccc2c(c1)C(=O)N(C1CCC(=O)NC1=O)C2=O` (stereo not drawn) [TR-157, N-(5-(3,5-Difluorobenzyl)-1H-indazol-3-yl)-4-(4-(2-((7-((2-(2,6-dioxopiperidin-3-yl)-1,3-dioxoisoindolin-5-yl)amino)heptyl)amino)-2-oxoethyl)piperazin-1-yl)-2-((tetrahydro-2H-pyran-4-yl)amino)benzamide], the IC50 came out at 8.3 nM.
In the case of `O=C(CN1CCN(c2ccc(C(=O)Nc3n[nH]c4ccc(Cc5cc(F)cc(F)c5)cc34)c(NC3CCOCC3)c2)CC1)NCCCCCCCCNc1ccc2c(c1)C(=O)N(C1CCC(=O)NC1=O)C2=O` (stereo not drawn) [TR-159, N-(5-(3,5-Difluorobenzyl)-1H-indazol-3-yl)-4-(4-(2-((8-((2-(2,6-dioxopiperidin-3-yl)-1,3-dioxoisoindolin-5-yl)amino)octyl)amino)-2-oxoethyl)piperazin-1-yl)-2-((tetrahydro-2H-pyran-4-yl)amino)benzamide], the half-inhibitory concentration (IC50) came out at 30.4 nM.
In the case of `O=C(CN1CCN(c2ccc(C(=O)Nc3n[nH]c4ccc(Cc5cc(F)cc(F)c5)cc34)c(NC3CCOCC3)c2)CC1)NCCOCCOCCOCCOCCNc1ccc2c(c1)C(=O)N(C1CCC(=O)NC1=O)C2=O` (stereo not drawn) [TR-160, N-(5-(3,5-Difluorobenzyl)-1H-indazol-3-yl)-4-(4-(17-((2-(2,6-dioxopiperidin-3-yl)-1,3-dioxoisoindolin-5-yl)amino)-2-oxo-6,9,12,15-tetraoxa-3-azaheptadecyl)piperazin-1-yl)-2-((tetrahydro-2H-pyran-4-yl)amino)benzamide], the IC50 was 4.8 nM.
As for `O=C(CN1CCN(c2ccc(C(=O)Nc3n[nH]c4ccc(Cc5cc(F)cc(F)c5)cc34)c(NC3CCOCC3)c2)CC1)NCCOCCNc1ccc2c(c1)C(=O)N(C1CCC(=O)NC1=O)C2=O` (stereo not drawn) [TR-161, N-(5-(3,5-Difluorobenzyl)-1H-indazol-3-yl)-4-(4-(2-((2-(2-((2-(2,6-dioxopiperidin-3-yl)-1,3-dioxoisoindolin-5-yl)amino)ethoxy)ethyl)amino)-2-oxoethyl)piperazin-1-yl)-2-((tetrahydro-2H-pyran-4-yl)amino)benzamide], the figure is 4.7 nM; as for `O=C(CN1CCN(c2ccc(C(=O)Nc3n[nH]c4ccc(Cc5cc(F)cc(F)c5)cc34)c(NC3CCOCC3)c2)CC1)NCCOCCOCCNc1ccc2c(c1)C(=O)N(C1CCC(=O)NC1=O)C2=O` (stereo not drawn) [TR-162, N-(5-(3,5-Difluorobenzyl)-1H-indazol-3-yl)-4-(4-(2-((2-(2-(2-((2-(2,6-dioxopiperidin-3-yl)-1,3-dioxoisoindolin-5-yl)amino)ethoxy)ethoxy)ethyl)amino)-2-oxoethyl)piperazin-1-yl)-2-((tetrahydro-2H-pyran-4-yl)amino)benzamide], 4.1 nM; as for `O=C(CN1CCN(c2ccc(C(=O)Nc3n[nH]c4ccc(Cc5cc(F)cc(F)c5)cc34)c(NC3CCOCC3)c2)CC1)NCCOCCOCCOCCNc1ccc2c(c1)C(=O)N(C1CCC(=O)NC1=O)C2=O` (stereo not drawn) [TR-163, N-(5-(3,5-Difluorobenzyl)-1H-indazol-3-yl)-4-(4-(14-((2-(2,6-dioxopiperidin-3-yl)-1,3-dioxoisoindolin-5-yl)amino)-2-oxo-6,9,12-trioxa-3-azatetradecyl)piperazin-1-yl)-2-((tetrahydro-2H-pyran-4-yl)amino)benzamide], 6.3 nM.

By IC50 is commonly meant the point on the concentration scale where inhibition reaches its midpoint.
